Results on 21 molecules are retold here after patent US20230338340A1, “Methods of Treating Cystic Fibrosis” (The Trustees of Dartmouth College, priority 2020, published 2023).

Like-named read-outs stand apart in the source and are kept apart here.

For the test, the target named is T1, Human-Dab2-DH (Homo sapiens, UniProt P98082).
T1 construct: fused on or other part: N-terminal 10xHis tag with a 3C protease site, cleaved off unless otherwise indicated
T1 sequence (P98082 33-178 limits assumed): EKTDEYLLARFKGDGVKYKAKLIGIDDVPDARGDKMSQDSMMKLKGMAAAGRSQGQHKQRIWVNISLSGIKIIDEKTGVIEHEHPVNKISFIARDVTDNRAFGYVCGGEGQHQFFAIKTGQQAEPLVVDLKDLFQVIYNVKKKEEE
As to the kind of experiment: Dab2 FP competition assay via HTS. The test is classed as binding. As for the experimental part:
CALP and/or Dab2 inhibition assays were performed in biochemical “mix-and-measure” format in order to evaluate the effects on activation and inhibition of CALP and/or Dab2 by the compounds of the disclosure. Brief assay procedure is provided below. Unless otherwise specified, all of the compounds were obtained from commercial sources.
Dab-2 inhibitors were also identified by FP competition assays via HTS. Human-Dab2-DH, residues 31-191 (Uniprot: P98082), and trDab2-DH (residues 33-178) was subcloned into the pET16b vector via PCR utilizing the restriction enzyme sites of Xhol and BamHI. The construct was designed with a 3C protease cleavage site directly upstream and in-frame with the protein coding sequence. DNA was sequence verified. (0.1 mM) IPTG was used to induce protein expression in E. coli BL21(DE3)RIL cells, after reaching an O.D. of […]. […] Followed by 3C cleavage of the 10×His tag (unless otherwise indicated), and a second nickel affinity column to remove the 3C protease and excess tag. Dab2-DH was dialyzed into FP storage buffer (25 mM Tris pH 8.0, 150 mM NaCl, 0.1 mM TCEP, and 0.02% sodium azide). Fluorescent reporter peptides, TIVR*STA02 (TMR*-[…]) and TMR*STA03 (TMR*-[…]), were purchased commercially with the following sequence where TMR* denotes a N-terminal tetramethylrhodamine group coupled via an aminohexanoic acid linker. An unlabled positive control peptide STA02 ([…]) was also purchased commercially. Inhibitors of Dab2-DH were identified from a variety of sources with various protocols outlined below.
For screens conducted at the Novartis Institutes for BioMedical Research FAST Lab, single-dose HTS assays were performed with libraries comprising ˜52,000 compounds at 20 μM doses. Experiments were conducted as described for screens at the University of Pittsburgh Lab and Drug Discovery Institute, except that Dab2-DH, not trDab2-DH, was used as the protein source.
For screens conducted at the Broad Institute, compound transfers were done using a 384-well pin tool equipped with 100 nL hydrophobic surface coated pins. 100 nL of DMSO (negative control), STA02 (positive control), or library compounds were dispensed into 20 μL of protein (200 nM) and reporter (F*-STA02, 30 nM) mixture with 0.1 mg/ml mouse IgG and 0.5 mM Thesit. Final concentrations in the mixture were DMSO ([…]), STA02 (20 μM), and compounds (18 μM). Plates were incubated for 35-45 minutes before measuring polarization. Compounds were tested in duplicates on two separate plates. Positive and negative controls were included in each individual plate.
For experiments conducted at the University of Pittsburgh Lab and Drug Discovery Institute, single-dose HTS assays were performed with a library containing ˜220,000 compounds. On the day of screening, a master mix of equal parts trDab2-DH (900 nM) and TMP-STA03 (90 nM) was prepared. Compound plates containing assay ready 2 μL aliquots of a 1 mM stock solution in DMSO were thawed, reconstituted in FP buffer to a concentration of 30 μM in 3% DMSO, and five μL transferred to low volume assay plates using a Perkin Elmer MDT. Ten μL of master mix were added by a Microflo bulk liquid dispenser (Biotek, Winooski, VT) and processed as described in the general protocol above. Each plate contained 32 wells of positive (Dab2-DH+probe+DMSO) and negative (Dab2-DH+probe +10 μM STA03) controls. Plates were read at 1.5-h and 4-h on the Envision multilabel reader.

[1] abbreviates: read-out: Inhibitory activity Dab2 IC50.

In the case of `CC[N+](C)(CC)CCC[n+]1c(-c2ccccc2)c2cc(N)ccc2c2ccc(N)cc21` [Example 29, 3,8-diamino-5-(3-(diethyl(methyl)ammonio)propyl)-6-phenylphenanthridin-5-ium bromide], under setting [1], the IC50 came to 9.41 µM.

For the molecule `CC(=O)C1=C(O)[C@@]2(O)C(=O)c3c(c(C)c4ccc(C)c(O)c4c3O)C[C@H]2[C@@H](N)C1=O` [Example 18, (1R,4aR,12aS)-3-acetyl-1-amino-4,4a,6,7-tetrahydroxy-8,11-dimethyl-12,12a-dihydrotetracene-2,5(1H,4aH)-dione], the IC50 under setting [1] worked out at 8.86 µM.

Regarding `CC(C)c1cc2c(c(O)c1O)[C@@]13CCCC(C)(C)[C@@H]1C[C@@H]2OC3=O` [Example 31, (4aR,9S,10aS)-5,6-dihydroxy-7-isopropyl-1,1-dimethyl-1,3,4,9,10,10a-hexahydro-2H-9,4a-(epoxymethano)phenanthren-12-one], under setting [1], the IC50 is 5.37 µM.

For the molecule `Cc1cc(O)c(O)c(Oc2cc(C)cc(O)c2O)c1` [Example 22, 6,6′-oxybis(4-methylbenzene-1,2-diol)], under setting [1], the IC50 was found to be 0.77 µM.

As to `O=C(/C=C/c1ccc(O)c(O)c1)OC(Cc1ccc(O)c(O)c1)C(=O)O` (stereo not drawn) [Example 25, (E)-3-(3,4-dihydroxyphenyl)-2-((3-(3,4-dihydroxyphenyl)acryloyl)oxy)propanoic acid], under setting [1], the IC50 was found to be 3.22 µM.

On to `Cc1occ2c1C(=O)c1c(O)ccc(O)c1C2` [Example 26, 5,8-dihydroxy-3-methylnaphtho[2,3-c]furan-4(9H)-one], for which, under setting [1], the IC50 amounted to 0.69 µM.

On to `CC1(C)Cc2ccccc2-c2n[nH]c(=S)n21` [Example 13, 5,5-dimethyl-5,6-dihydro-[1,2,4]triazolo[3,4-a]isoquinoline-3(2H)-thione], for which the “Inhibitory activity Dab2 at Cmax” value (at Cmax, cells printed with %) is on record as roughly −95%.

With `COC(=O)C1=COC(OC2OC(CO)C(O)C(O)C2O)C2C(CO)=CCC12O` (stereo not drawn) [Example 28, methyl 4a-hydroxy-7-(hydroxymethyl)-1-((3,4,5-trihydroxy-6-(hydroxymethyl)tetrahydro-2H-pyran-2-yl)oxy)-1,4a,5,7a-tetrahydrocyclopenta[c]pyran-4-carboxylate], the IC50 under setting [1] worked out at 0.39 µM.

For `CC1CCCCCCCCCC(OC(=O)CCC(=O)O)C(=O)/C=C/C(=O)O1` (stereo not drawn) [Example 27, (E)-4-((16-methyl-2,5-dioxooxacyclohexadec-3-en-6-yl)oxy)-4-oxobutanoic acid], the 50% inhibitory concentration (IC50) under setting [1] is 3.85 µM.

In turn, `COc1c(O)c2c(=O)cc(OC)c3c4c(OC)cc(=O)c5c(O)c(OC)c(CC(C)OC(=O)c6ccccc6)c(c(c1CC(C)OC(=O)Oc1ccc(O)cc1)c23)c54` (stereo not drawn) [Example 20, 1-(3,10-dihydroxy-12-(2-(((4-hydroxyphenoxy)carbonyl)oxy)propyl)-2,6,7,11-tetramethoxy-4,9-dioxo-4,9-dihydroperylen-1-yl)propan-2-yl benzoate] returned an IC50 of 0.51 µM.

For the molecule `Cc1cc(O)c(Oc2cc(C)cc(O)c2O)c(O)c1` [Example 23, 3-(2,6-dihydroxy-4-methylphenoxy)-5-methylbenzene-1,2-diol], the IC50 under setting [1] was determined as 0.89 µM.

Turning to `CC1=C(O)C(=O)C=C2C1=CC=C1[C@@]2(C)CC[C@@]2(C)[C@@H]3C[C@](C)(C(=O)O)CC[C@]3(C)CC[C@]12C` [Example 24, (2R,4aS,6aS,12bR,14aS,14bR)-10-hydroxy-2,4a,6a,9,12b,14a-hexamethyl-11-oxo-1,2,3,4,4a,5,6,6a,11,12b,13,14,14a,14b-tetradecahydropicene-2-carboxylic acid], the concentration for half-maximal inhibition (IC50) under setting [1] came to 0.66 µM.

Take `COc1ccc(C(=O)C(=O)Nc2ccccc2)c(O)c1` [Example 21, 2-(2-hydroxy-4-methoxyphenyl)-2-oxo-N-phenylacetamide]: the 50% inhibitory concentration (IC50) under setting [1] amounted to 0.94 µM.

Consider `CN(C)[C@@H]1C(=O)C(C(N)=O)=C(O)[C@@]2(O)C(=O)C3=C(O)c4c(O)cccc4[C@@](C)(O)[C@H]3[C@H](O)[C@@H]12` [Example 30, (4S,4aR,5S,5aR,6S,12aR)-4-(dimethylamino)-1,5,6,10,11,12a-hexahydroxy-6-methyl-3,12-dioxo-3,4,4a,5,5a,6,12,12a-octahydrotetracene-2-carboxamide], for which the IC50 was determined as 6.02 µM.

In the case of `COC1=CC(=O)C(O)=C/C1=C\C=C\c1ccccc1` [Example 19, (E)-2-hydroxy-5-methoxy-4-((E)-3-phenylallylidene)cyclohexa-2,5-dien-1-one], the IC50 under setting [1] is 7.73 µM.

In the case of `C=C1C(=O)OC2C(=O)OC(CCCCCCCCCC)C12` (stereo not drawn) [Example 32, 4-decyl-3-methylenedihydrofuro[3,4-b]furan-2,6(3H,4H)-dione], under setting [1], the IC50 worked out at 5.22 µM.

`O=C1C=C(O)c2c(O)cc(O)cc2C1=O` [Example 17, 4,5,7-trihydroxynaphthalene-1,2-dione]: the IC50 under setting [1] stood at 8.29 µM.

For the molecule `CC1OC2CC(=O)OC2C2=C1C(=O)c1c(O)cccc1C2=O` (stereo not drawn) [Example 33, 7-hydroxy-5-methyl-3,3a,5,11b-tetrahydro-2H-benzo[g]furo[3,2-c]isochromene-2,6,11-trione], under setting [1], the IC50 stood at 8.02 µM.

Regarding `COc1c(O)cc(C(C)C(C)=O)c(O)c1OC` (stereo not drawn) [Example 35, 3-(2,5-dihydroxy-3,4-dimethoxyphenyl)butan-2-one], under setting [1], the concentration for half-maximal inhibition (IC50) came out at 1.17 µM.

For the molecule `O=C1c2c(O)c(Cl)cc3c2[C@@]2(Oc4ccc(O)c5c4[C@]3(O2)[C@@H]2O[C@@H]2C5=O)[C@@H]2O[C@H]12` [Example 34, (1aR,1bS,5aS,6aR,6bS,11aS)-3-chloro-4,10-dihydroxy-1a,5a,6a,11a-tetrahydro-5H,11H-1b,6b-epoxyoxireno[2′,3′:2,3]naphtho[1,8-bc]oxireno[2′,3′:2,3]naphtho[1,8-ef]oxepine-5,11-dione], the half-inhibitory concentration (IC50) under setting [1] stood at 2.99 µM.

With `CC(C)c1cc2c(c(O)c1O)C13CCCC(C)(C)C1CC2OC3=O` (stereo not drawn) [Example 16, 5,6-dihydroxy-7-isopropyl-1,1-dimethyl-1,3,4,9,10,10a-hexahydro-2H-9,4a-(epoxymethano)phenanthren-12-one], the IC50 under setting [1] amounted to 6.89 µM.

A word on the IC50: it is the concentration that gives 50% inhibition.
